Data published in ChEMBL document CHEMBL1123349, “Analogues of 1,3-dipropyl-8-phenylxanthine: enhancement of selectivity at A1-adenosine receptors by aryl substituents” (J Med Chem, 1986).
Several values for one entry are separate records, joined by “and”; a condition that tells them apart may be missing. Equal entries are not always repeated.

Legend:
[1] = target: T1, Adenosine receptor A1 (Rattus norvegicus, UniProt P25099); assay: Binding affinity against A1 adenosine receptors of the central nervous system
T1 sequence (P25099 whole entry): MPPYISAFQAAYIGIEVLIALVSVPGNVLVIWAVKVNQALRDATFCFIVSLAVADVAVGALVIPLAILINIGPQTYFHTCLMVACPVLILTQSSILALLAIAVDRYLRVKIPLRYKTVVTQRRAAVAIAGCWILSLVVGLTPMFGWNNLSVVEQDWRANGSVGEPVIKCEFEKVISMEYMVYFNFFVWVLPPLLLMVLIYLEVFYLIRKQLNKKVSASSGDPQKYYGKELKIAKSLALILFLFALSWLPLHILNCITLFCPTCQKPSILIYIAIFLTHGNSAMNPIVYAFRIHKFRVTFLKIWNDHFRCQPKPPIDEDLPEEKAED

[2] = target: Adenosine receptors; A1 & A2 (Rattus norvegicus) (UniProt P29276+P25099+P30543); assay: Selectivity ratio was expressed as the ratio of binding affinity towards Adenosine A2 receptor to that of Adenosine A1 receptor in rat
[3] = target: Adenosine A2 receptor (Rattus norvegicus, UniProt P29276+P30543); assay: Binding affinity against A2 adenosine receptors of the central nervous system; format: protein assay

| SMILES | Ki [1] | Ratio [2] | Ki [3] |
| --- | --- | --- | --- |
| CCCn1c(=O)c2nc(-c3ccc(O)c(Cl)c3)[nH]c2n(CCC)c1=O | – | 3.9 | 140 nM |
| CCCn1c(=O)c2nc(-c3ccc(F)cc3F)[nH]c2n(CCC)c1=O | – | 5.9 | 290 nM |
| CCCn1c(=O)c2nc(-c3ccc(S(=O)(=O)O)cc3)[nH]c2n(CCC)c1=O | – | 3.4 | 710 nM |
| CCCn1c(=O)c2nc(-c3ccc(Cl)cc3OC)[nH]c2n(CCC)c1=O | 420 nM | > 7 | > 3000 nM |
| CCCn1c(=O)c2nc(-c3ccc(Cl)cc3N)[nH]c2n(CCC)c1=O | – | 400 | 1000 nM |
| CCCn1c(=O)c2nc(-c3cc(O)ccc3O)[nH]c2n(CCC)c1=O | 360 nM | 9.7 | 3500 nM |
| CCCn1c(=O)c2nc(-c3ccc(N(C)C)cc3)[nH]c2n(CCC)c1=O | 45 nM | 2.2 | 100 nM |
| CCCn1c(=O)c2nc(-c3ccc(C(N)=O)cc3)[nH]c2n(CCC)c1=O | 7 nM and 25 nM | – | 72 nM and 55 nM |
| CCCn1c(=O)c2[nH]c(-c3ccc(F)cc3F)nc2n(CCC)c1=O | 51 nM | – | – |

More lines, now with the values ahead:

| Ki [1] | Ratio [2] | Ki [3] | SMILES |
| --- | --- | --- | --- |
| 36 nM | – | – | CCCn1c(=O)c2[nH]c(-c3ccc(O)c(Cl)c3)nc2n(CCC)c1=O |
| 8.5 nM | 15 | 115 nM | CCCn1c(=O)c2nc(-c3ccc(S(N)(=O)=O)cc3)[nH]c2n(CCC)c1=O |
| 8 nM | 1.5 | 12 nM | CCCn1c(=O)c2nc(-c3ccc(OC(C)=O)cc3)[nH]c2n(CCC)c1=O |
| 15 nM | – | – | CCCn1c(=O)c2[nH]c(-c3ccc(O)cc3O)nc2n(CCC)c1=O |
| 33 nM | 6.4 | 210 nM | CCCn1c(=O)c2nc(-c3cccc(O)c3O)[nH]c2n(CCC)c1=O |
| 14 nM | – | – | CCCn1c(=O)c2nc(-c3ccc(OC)cc3)[nH]c2n(CCC)c1=O |
| 4.6 nM | 2.8 | 13 nM | CCCn1c(=O)c2nc(-c3ccc(N)cc3N)[nH]c2n(CCC)c1=O |
| 27 nM | 1 | 28 nM | CCCn1c(=O)c2nc(-c3ccc(N)cc3)[nH]c2n(CCC)c1=O |
| 11 nM | 89 | 980 nM | CCCn1c(=O)c2[nH]c(-c3ccc(OC)cc3O)nc2n(CCC)c1=O |
